From patent publication US7785807B2, “Voltage-gated, pH-sensitive anion channel and its novel splice variant involved in taste sensation” (Monell Chemical Senses Center, priority 2004, dated 2010)
Entries after “also recorded” stand apart in the source; their conditions may differ.

Legend:
Type in all cases: cell-based
[1] = target: T1, human ClC-4 (Homo sapiens, UniProt P51793); test: Two-electrode voltage-clamp recording of human ClC-4 expressed in Xenopus oocytes, chloride channel inhibitor effect
T1 construct: one clone was isolated, which contained the entire coding region; expressed in transfected cells; host or cells: Xenopus laevis oocytes injected with in vitro transcribed cRNA
T1 sequence (P51793 1-760): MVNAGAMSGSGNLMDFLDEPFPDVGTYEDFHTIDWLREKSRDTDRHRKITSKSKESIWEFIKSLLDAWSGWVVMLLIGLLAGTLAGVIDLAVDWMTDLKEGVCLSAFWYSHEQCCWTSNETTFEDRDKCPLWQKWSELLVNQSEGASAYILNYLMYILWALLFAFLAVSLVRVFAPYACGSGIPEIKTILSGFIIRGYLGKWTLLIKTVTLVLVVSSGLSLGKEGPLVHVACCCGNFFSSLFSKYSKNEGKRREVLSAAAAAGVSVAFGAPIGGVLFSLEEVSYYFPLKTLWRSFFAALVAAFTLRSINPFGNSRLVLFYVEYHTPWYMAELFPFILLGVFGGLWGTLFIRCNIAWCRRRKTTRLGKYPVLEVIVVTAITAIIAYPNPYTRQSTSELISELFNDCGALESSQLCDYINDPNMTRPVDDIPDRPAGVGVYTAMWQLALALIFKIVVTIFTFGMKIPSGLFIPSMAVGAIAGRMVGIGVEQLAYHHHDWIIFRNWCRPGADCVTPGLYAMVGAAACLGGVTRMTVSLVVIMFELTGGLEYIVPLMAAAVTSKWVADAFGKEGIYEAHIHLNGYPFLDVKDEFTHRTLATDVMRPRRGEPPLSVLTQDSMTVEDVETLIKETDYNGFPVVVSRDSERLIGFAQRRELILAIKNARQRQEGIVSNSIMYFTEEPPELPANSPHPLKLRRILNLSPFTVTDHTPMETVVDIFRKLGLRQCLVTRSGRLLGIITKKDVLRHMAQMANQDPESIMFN
Procedure: (§1) ClC-4 and ClC-4A cDNAs were subcloned into the expression vector pCR Blunt II TOPO. Capped sense cRNA was synthesized from the linearized expression constructs by T7 RNA polymerase with nMessage mMachine in vitro transcription kit and tailed with polyA tailing kit (Ambion). The synthesized cRNA products were phenol extracted, ethyl alcohol precipitated, and then dissolved in nuclease-free water at about 0.5 ng/nl for injection. Dumont stage V or VI oocytes were obtained from adult female laboratory bred Xenopus laevis, and their follicles were removed by collagenase digestion. […] Membrane currents were recorded using the two-electrode voltage-clamp technique in ND96 solution (96 mM NaCl, 2 mM KCl, 1.8 mM CaCl2, 1 mM MgCl2, 5 mM Na-HEPES, pH 7.4). […]
(§2) Recording and current-passing micropipettes with tip resistance <5 MΩ when filled with 3 M KCl were pulled from glass capillaries (A-M Systems Inc., Carlsburg, Wash., USA) using a horizontal puller (Suffer P-80/PC). Currents were recorded with a GeneClamp 500 amplifier, digitized with a Digidata 1200 A/D-D/A system, and stored on a computer running pCLAMP 6 software (all from Axon Instruments, Foster City, Calif., USA). […]

[2] = target: T2, mouse ClC-4 (Mus musculus, UniProt Q61418); test: Two-electrode voltage-clamp recording of mouse ClC-4 expressed in Xenopus oocytes, chloride channel inhibitor effect
T2 construct: a pair of PCR primers was designed to encompass the entire coding region; expressed in transfected cells; host or cells: Xenopus laevis oocytes injected with in vitro transcribed cRNA
T2 sequence (Q61418 1-747): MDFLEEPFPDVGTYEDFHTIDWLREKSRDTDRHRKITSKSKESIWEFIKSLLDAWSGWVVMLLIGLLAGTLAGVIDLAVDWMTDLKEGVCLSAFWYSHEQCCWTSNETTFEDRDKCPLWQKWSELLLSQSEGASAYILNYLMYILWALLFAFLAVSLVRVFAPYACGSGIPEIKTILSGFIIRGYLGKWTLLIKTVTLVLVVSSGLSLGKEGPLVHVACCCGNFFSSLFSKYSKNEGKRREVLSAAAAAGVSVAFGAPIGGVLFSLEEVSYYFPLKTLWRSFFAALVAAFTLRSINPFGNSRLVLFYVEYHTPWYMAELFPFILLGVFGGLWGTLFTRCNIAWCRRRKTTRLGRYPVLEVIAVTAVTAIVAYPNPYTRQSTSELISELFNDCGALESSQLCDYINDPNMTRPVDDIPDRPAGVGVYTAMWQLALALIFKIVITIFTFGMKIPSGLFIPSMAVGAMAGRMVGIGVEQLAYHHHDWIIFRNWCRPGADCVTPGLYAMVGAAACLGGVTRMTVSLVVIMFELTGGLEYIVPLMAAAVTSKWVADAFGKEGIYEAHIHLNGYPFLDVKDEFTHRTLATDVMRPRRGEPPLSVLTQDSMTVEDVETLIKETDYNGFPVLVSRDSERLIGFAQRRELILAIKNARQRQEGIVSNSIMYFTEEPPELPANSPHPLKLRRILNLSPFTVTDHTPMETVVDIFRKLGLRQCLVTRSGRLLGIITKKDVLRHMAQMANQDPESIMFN
Procedure: as §1, §2

[3] = target: T3, ClC-4A (Mus musculus, UniProt Q61418); test: Two-electrode voltage-clamp recording of ClC-4A expressed in Xenopus oocytes, chloride channel inhibitor effect
T3 construct: expressed in transfected cells; host or cells: Xenopus laevis oocytes injected with in vitro transcribed cRNA
T3 sequence (Q61418 61-747): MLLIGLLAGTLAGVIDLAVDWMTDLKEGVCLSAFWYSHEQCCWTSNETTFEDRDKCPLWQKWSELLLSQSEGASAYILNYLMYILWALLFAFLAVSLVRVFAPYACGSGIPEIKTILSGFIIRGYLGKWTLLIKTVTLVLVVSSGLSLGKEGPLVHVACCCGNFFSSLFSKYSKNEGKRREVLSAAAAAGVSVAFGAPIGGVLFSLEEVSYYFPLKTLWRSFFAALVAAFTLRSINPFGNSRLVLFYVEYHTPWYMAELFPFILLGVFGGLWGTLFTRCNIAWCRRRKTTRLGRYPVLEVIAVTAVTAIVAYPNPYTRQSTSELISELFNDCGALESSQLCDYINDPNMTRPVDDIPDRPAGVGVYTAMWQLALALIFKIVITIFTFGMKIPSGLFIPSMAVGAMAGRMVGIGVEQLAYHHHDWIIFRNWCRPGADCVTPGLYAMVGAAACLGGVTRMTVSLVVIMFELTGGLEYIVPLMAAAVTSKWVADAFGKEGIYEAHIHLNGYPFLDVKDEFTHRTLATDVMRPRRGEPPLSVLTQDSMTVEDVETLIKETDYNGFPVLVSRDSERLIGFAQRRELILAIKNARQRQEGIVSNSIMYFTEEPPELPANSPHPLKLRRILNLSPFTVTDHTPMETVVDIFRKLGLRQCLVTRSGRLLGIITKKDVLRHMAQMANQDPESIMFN
Procedure: as §1, §2

[4] = 0.3 mM NFA, pH 7.4, Xenopus oocytes
[5] = 0.1 mM NPPB, optimal pH, Xenopus oocytes

Structure (SMILES)	inhibition on ion channel conductance [1, 4]	inhibition on ion channel conductance [2, 4]	inhibition on ion channel conductance ([3]; 0.3 mM NFA, pH 5.5, Xenopus oocytes)	inhibition on ion channel conductance [1, 5]	inhibition on ion channel conductance [2, 5]	inhibition on ion channel conductance [3, 5]
O=C(O)c1cccnc1Nc1cccc(C(F)(F)F)c1 [NFA, niflumic acid]	only a slight inhibitory effect	only a slight inhibitory effect	significantly inhibited	–	–	–
O=C(O)c1cc([N+](=O)[O-])ccc1NCCCc1ccccc1 [NPPB, 5-nitro-2-(3-phenylpropylamino)-benzoic acid]	–	–	–	no apparent effect	no apparent effect	slightly inhibit; also recorded: inhibited
